{"source": "patent US20190358264A1", "about": "“METHODS OF TREATING DISEASES ASSOCIATED WITH ILC2 CELLS” (Limm Therapeutics, SA, priority 2016, published 2019)", "key": {"[1]": {"system": "intestine and lung-derived ILC2s", "assay": "In vitro activation of purified ILC2s with NmU23, type 2 cytokine mRNA by quantitative RT-PCR", "type": "cell-based, mouse", "description": "For in vitro experiments, purified lung and small intestine lamina propria ILC2s were FBS starved for 2 hours prior to stimulation and cultured in complete RPMI (supplemented with 10% foetal bovine serum (FBS), 1% hepes, sodium pyruvate, glutamine, streptomycin and penicillin) at 37° C. For mRNA analysis, ILC2s were stimulated overnight with recombinant mouse Neuromedin U 23 peptide (NmU23, 100 ng/mL; Phoenix pharmaceuticals). Both NmU23-stimulated and control ILC2s were cultured in the presence of IL-2 and IL-7 (10 ng/mL; Peprotech). ILC2s were lysed using RLT buffer (Qiagen). For cytokine protein analysis, ILC2s were incubated exclusively with brefeldin A (eBioscience) for 12 hours prior to intracellular staining. For in vivo experiments, B6 mice were injected intraperitoneal with NmU23 peptide (2 g/day) during Nippostrongylus brasiliensis infection or with a single dose of NmU23 (20 μg) and analyzed after 8 hours. Control mice were treated with PBS alone. Total RNA was extracted using RNeasy micro kit (Qiagen) according to the manufacturer's protocol. RNA concentration was determined using Nanodrop Spectrophotometer (Nanodrop Technologies). Quantitative real-time RT-PCR was performed as previously described^5,8. Hprt1, Gapdh and Eef1a1 were used as housekeeping genes. For TaqMan assays (Applied Biosystems) RNA was retro-transcribed using a High Capacity RNA-to-cDNA Kit (Applied Biosystems), followed by a pre-amplification PCR using TaqMan PreAmp Master Mix (Applied Biosystems). TaqMan Gene Expression Master Mix (Applied Biosystems) was used in real-time PCR. TaqMan Gene Expression Assays (Applied Biosystems) were the following: Hprt1 Mm00446968_m1; Gapdh Mm99999915_g 1; Eef1a1 Mm01973893_g 1; Il5 Mm00439646_m1; Il13 Mm00434204_m1; Areg Mm01354339_m1; 114 Mm00445259_m1; Csf2 Mm01290062_m1; Gata3 Mm00484683_m1; Rora Mm01173766_m1; Nmu Mm00479868_m1; Nmur1 Mm04207994_m1. Real-time PCR analysis was performed using StepOne Real-Time PCR system (Applied Biosystems)."}, "Th2": {"system": "Th2", "assay": "In vitro stimulation of Th2 cells with NmU23, type 2 cytokine gene expression", "type": "cell-based, mouse", "conditions": "NmU23 100 ng/mL in vitro (FIG. 9f)", "from_the_text": "FIGS. 9a-9i: FIG. 9a, Nmur1 quantitative RT-PCR analysis in the lungs at day 6 post Nippostrongylus brasiliensis (NB)—infection in lung. Eosinophils (Eo); Mast cells (Mast); Macrophages (Mø); Neutrophils (Neu); naive T cells (T); Innate lymphoid cells type 2 (ILC2). FIG. 9b, NMUR1 expression in human adaptive (CD4 T cells) and innate type 2 lymphocytes ILC2 from blood. FIG. 9c, Type 2 cytokine gene expression in human ILC2 and Th2 after in vitro stimulation with the peptide NmU25. FIG. 9d, Nmur1 expression in lung ILC2 before and after infection (at day 6). FIG. 9e, Nmur1 expression in steady state in Common lymphoid progenitor (CLP); Common helper innate lymphoid progenitor (CHILP), Bone marrow ILC2 progenitor (ILC2P) and Eo, Mast, Mø, Neu, Dendritic cells (DC); naive T cells (T); T-helper 2 cells (Th2); memory T cells, B cells (B), Lamina Propria glial cells (G) and neurons (N). n=3-6. FIG. 9f, Type 2 cytokine gene expression in intestinal ILC2 and Th2 after in vitro stimulation with the peptide NmU23 (100 ng/mL). n=3-6. FIG. 9g, Confocal analysis of intestinal lamina propria. Green: neurons (Ret^GFP); Cyan: KLRG1; red: CD3. […]\nTotal RNA was extracted using RNeasy micro kit (Qiagen) according to the manufacturer's protocol. RNA concentration was determined using Nanodrop Spectrophotometer (Nanodrop Technologies). Quantitative real-time RT-PCR was performed as previously described^5,8. […]"}}}
{"substance": "recombinant mouse Neuromedin U 23 peptide (FKAEYQSPSVGQSKGYFLFRPRN; listed as Mus musculus) [NmU23, NMUR1 agonist neuropeptide, Phoenix pharmaceuticals]", "values": [{"measurement": "innate Il5 and Il13 gene expression in intestinal ILC2", "setting": "[1]; NmU23 100 ng/mL in vitro (FIG. 9f)", "result": "immediate innate Il5 and Il13 upregulation"}, {"measurement": "expression of type 2 cytokines genes Il5, Il13, Areg and Csf2 in ILC2s", "setting": "[1]; NmU23 100 ng/mL overnight, with IL-2 and IL-7, intestine and lung ILC2s", "result": "prompt and very potent expression"}, {"measurement": "expression of the master type 2 transcription factor Gata3 in ILC2s", "setting": "[1]; NmU23 100 ng/mL overnight, intestine and lung ILC2s", "result": "increased expression"}, {"measurement": "type 2 cytokine gene expression in adaptive T cell counterparts (Th2)", "setting": "Th2", "result": "unperturbed"}]}
